Consider 29 compounds from patent publication US20240158412A1 (Faxian Therapeutics, LLC, priority 2021, published 2024).

Each structure is given as a SMILES string.
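Further: fluorescence intensity readout of USP7 enzymatic activity, reaction incubated 90 min at room temperature.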

In the assay the target is USP7 (Homo sapiens, UniProt Q93009). The assay is described as follows: biochemical.
USP7, sequence (Q93009 whole entry): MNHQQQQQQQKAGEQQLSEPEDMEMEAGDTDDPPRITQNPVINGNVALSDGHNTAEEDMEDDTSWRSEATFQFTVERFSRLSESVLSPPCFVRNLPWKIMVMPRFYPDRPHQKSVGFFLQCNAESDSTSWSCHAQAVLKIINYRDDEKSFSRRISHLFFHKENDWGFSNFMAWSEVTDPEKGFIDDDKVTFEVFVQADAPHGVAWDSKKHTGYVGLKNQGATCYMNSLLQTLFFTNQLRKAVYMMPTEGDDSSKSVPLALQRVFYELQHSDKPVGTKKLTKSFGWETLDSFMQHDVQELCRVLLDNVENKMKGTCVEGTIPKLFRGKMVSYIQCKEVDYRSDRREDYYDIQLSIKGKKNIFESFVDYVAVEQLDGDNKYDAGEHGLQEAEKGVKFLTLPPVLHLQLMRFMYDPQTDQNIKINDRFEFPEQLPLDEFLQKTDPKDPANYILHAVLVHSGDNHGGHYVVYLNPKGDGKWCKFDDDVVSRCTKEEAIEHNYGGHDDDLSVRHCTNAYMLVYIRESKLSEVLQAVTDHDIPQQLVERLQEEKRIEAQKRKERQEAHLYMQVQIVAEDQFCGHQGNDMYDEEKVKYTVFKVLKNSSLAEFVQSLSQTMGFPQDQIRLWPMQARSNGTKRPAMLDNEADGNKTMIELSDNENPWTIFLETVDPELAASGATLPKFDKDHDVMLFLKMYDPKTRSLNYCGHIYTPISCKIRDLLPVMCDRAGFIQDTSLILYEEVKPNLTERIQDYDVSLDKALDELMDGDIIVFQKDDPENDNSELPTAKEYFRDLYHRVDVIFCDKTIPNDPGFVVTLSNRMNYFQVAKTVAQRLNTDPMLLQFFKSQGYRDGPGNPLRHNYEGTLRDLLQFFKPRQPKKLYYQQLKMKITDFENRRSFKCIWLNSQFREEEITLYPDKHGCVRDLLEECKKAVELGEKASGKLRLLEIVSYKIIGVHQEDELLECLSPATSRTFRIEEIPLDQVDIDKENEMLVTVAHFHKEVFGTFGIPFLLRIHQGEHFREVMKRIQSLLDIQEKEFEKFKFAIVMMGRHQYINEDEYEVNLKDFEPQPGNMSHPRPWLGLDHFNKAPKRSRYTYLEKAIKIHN
Take `CC1(C)C[C@H](N2CCOc3cc(C#N)cc(-c4ccnc5cc(Cn6ncc(C(C)(C)C)cc6=O)sc45)c32)CN1` [Example 136, (S)-5-(2-((4-(tert-butyl)-6-oxopyridazin-1(6H)-yl)methyl)thieno[3,2-b]pyridin-7-yl)-4-(5,5-dimethylpyrrolidin-3-yl)-3,4-dihydro-2H-benzo[b][1,4]oxazine-7-carbonitrile]: the IC50 was under 0.01 µM.

In turn, `O=C1COC(=O)N1Cc1cc2nccc(-c3cc(Cl)cc4c3N([C@H]3CCNC3)CCC4)c2s1` [Example 73, (S)-3-((7-(6-chloro-1-(pyrrolidin-3-yl)-1,2,3,4-tetrahydroquinolin-8-yl)thieno[3,2-b]pyridin-2-yl)methyl)oxazolidine-2,4-dione] yielded an IC50 of under 0.01 µM.

The compound `O=C1CCN(CC(F)(F)F)C(=O)N1Cc1cc2nccc(-c3cc(Cl)cc4c3N([C@H]3CCNC3)CCC4)c2s1` [Example 77, (S)-3-((7-(6-chloro-1-(pyrrolidin-3-yl)-1,2,3,4-tetrahydroquinolin-8-yl)thieno[3,2-b]pyridin-2-yl)methyl)-1-(2,2,2-trifluoroethyl)dihydropyrimidine-2,4(1H,3H)-dione] showed a 50% inhibitory concentration (IC50) of under 0.01 µM.

Turning to `O=C1CCC(=O)N1Cc1cc2nccc(-c3cc(Cl)cc4c3N([C@H]3C[C@@H](O)C3)CCC4)c2s1` [Example 41, Cis-1-[[7-[6-chloro-1-(3-hydroxycyclobutyl)-3,4-dihydro-2H-quinolin-8-yl]thieno[3,2-b]pyridin-2-yl]methyl]pyrrolidine-2,5-dione], the IC50 was over 1 µM.

The compound `O=c1cc(C2CC2)cnn1Cc1cc2nccc(-c3cc(Cl)cc4c3N([C@@H]3CN[C@@H](CO)C3)CCC4)c2s1` [Example 186, 2-[[7-[6-chloro-1-[(3S,5R)-5-(hydroxymethyl)pyrrolidin-3-yl]-3,4-dihydro-2H-quinolin-8-yl]thieno[3,2-b]pyridin-2-yl]methyl]-5-cyclopropyl-pyridazin-3-one] registered a concentration for half-maximal inhibition (IC50) of under 0.01 µM.

Compound `CC(C)c1cnn(Cc2cc3nccc(-c4cc(C#N)cc5c4N([C@@H]4CNC(C)(C)C4)CCC5)c3s2)c(=O)c1` [Example 129, (S)-1-(5,5-dimethylpyrrolidin-3-yl)-8-(2-((4-isopropyl-6-oxopyridazin-1(6H)-yl)methyl)thieno[3,2-b]pyridin-7-yl)-1,2,3,4-tetrahydroquinoline-6-carbonitrile] yielded an IC50 of under 0.01 µM.

The compound `O=C1CCC(=O)N1Cc1cc2nccc(-c3cc(Cl)cc4c3N([C@H]3CO[C@@H](CO)C3)CCO4)c2s1` (single isomer, unassigned) [Example 227a] came in with an IC50 of over 1 µM.

`O=C1CCC(=O)N1Cc1cc2nccc(-c3cc(Cl)cc4c3N([C@@H]3CN(C[C@H](O)C(F)(F)F)C5(CCC5)C3)CCC4)c2s1` (single isomer, unassigned) [Example 143a]: the half-maximal inhibitory concentration (IC50) was 0.01 to 0.1 µM.

For `COCCn1ccc(=O)n(Cc2cc3nccc(-c4cc(Cl)cc5c4N(C4CNC4)CCC5)c3s2)c1=O` [Example 30, 3-[[7-[1-(azetidin-3-yl)-6-chloro-3,4-dihydro-2H-quinolin-8-yl]thieno[3,2-b]pyridin-2-yl]methyl]-1-(2-methoxyethyl)pyrimidine-2,4-dione], the 50% inhibitory concentration (IC50) was under 0.01 µM.

Consider `CN1CC2(CC(N3CCCc4cc(Cl)cc(-c5ccnc6cc(CN7C(=O)CCC7=O)sc56)c43)C2)C1` [Example 138, 1-[[7-[6-chloro-1-(2-methyl-2-azaspiro[3.3]heptan-6-yl)-3,4-dihydro-2H-quinolin-8-yl]thieno[3,2-b]pyridin-2-yl]methyl]pyrrolidine-2,5-dione], for which the IC50 fell in the range of 0.01 to 0.1 µM.

In the case of `CC(=O)N1CC(N2CCCc3cc(Cl)cc(-c4ccnc5cc(CN6C(=O)CCC6=O)sc45)c32)C1` [Example 8, 1-((7-(1-(1-acetylazetidin-3-yl)-6-chloro-1,2,3,4-tetrahydroquinolin-8-yl)thieno[3,2-b]pyridin-2-yl)methyl)pyrrolidine-2,5-dione], the IC50 lay in the range of 0.101 to 1 µM.

The compound `CC1(C)C2C(=O)N(Cc3cc4nccc(-c5cc(Cl)cc6c5N(C5CNC5)CCC6)c4s3)C(=O)C21` (centres unmarked) [Example 14, 3-[[7-[1-(azetidin-3-yl)-6-chloro-3,4-dihydro-2H-quinolin-8-yl]thieno[3,2-b]pyridin-2-yl]methyl]-6,6-dimethyl-3-azabicyclo[3.1.0]hexane-2,4-dione] displayed an IC50 of 0.01 to 0.1 µM.

On to `CCn1c(N(C)C)cc(=O)n(Cc2cc3nccc(-c4cc(C#N)cc5c4N([C@H]4CN[C@](C)(CO)C4)CCO5)c3s2)c1=O` (stereo in doubt) [Example 219, 5-(2-((4-(dimethylamino)-3-ethyl-2,6-dioxo-2,3-dihydropyrimidin-1(6H)-yl)methyl)thieno[3,2-b]pyridin-7-yl)-4-((3R,5S)-5-(hydroxymethyl)-5-methylpyrrolidin-3-yl)-3,4-dihydro-2H-benzo[b][1,4]oxazine-7-carbonitrile], for which the IC50 is under 0.01 µM.

In turn, `CN1C[C@@H](N2CCCc3cc(C#N)cc(-c4ccnc5cc(Cn6c(=O)ccn(C)c6=O)sc45)c32)CC1(C)C` [Example 123, (S)-8-(2-((3-methyl-2,6-dioxo-2,3-dihydropyrimidin-1(6H)-yl)methyl)thieno[3,2-b]pyridin-7-yl)-1-(1,5,5-trimethylpyrrolidin-3-yl)-1,2,3,4-tetrahydroquinoline-6-carbonitrile] showed an IC50 of under 0.01 µM.

Turning to `O=C1CCC(=O)N1Cc1cc2nccc(-c3cc(C(F)(F)F)cc4c3N(C3CNC3)CCC4)c2s1` [Example 39], the IC50 was 0.01 to 0.1 µM.

With `O=C1CCC(=O)N1Cc1cc2nccc(-c3cc(Cl)cc4c3N([C@@H]3CCC5(CCCN5)C3)CCC4)c2s1` (single isomer, unassigned) [Example 179a], the 50% inhibitory concentration (IC50) lay within 0.01 to 0.1 µM.

With `CC1(C)C2C(=O)N(Cc3cc4nccc(-c5cc(C#N)cc6c5N([C@@H]5CN[C@@](C)(CO)C5)CCO6)c4s3)C(=O)C21` (stereo partly drawn) [Example 220, 5-(2-((6,6-dimethyl-2,4-dioxo-3-azabicyclo[3.1.0]hexan-3-yl)methyl)thieno[3,2-b]pyridin-7-yl)-4-((3S,5R)-5-(hydroxymethyl)-5-methylpyrrolidin-3-yl)-3,4-dihydro-2H-benzo[b][1,4]oxazine-7-carbonitrile], the 50% inhibitory concentration (IC50) was under 0.01 µM.

Turning to `N#Cc1cc2c(c(-c3ccnc4cc(CN5C(=O)CCC5=O)sc34)c1)N(C1CNC1)CCC2` [Example 32, 1-(azetidin-3-yl)-8-[2-[(2,5-dioxopyrrolidin-1-yl)methyl]thieno[3,2-b]pyridin-7-yl]-3,4-dihydro-2H-quinoline-6-carbonitrile], the half-maximal inhibitory concentration (IC50) was 0.01 to 0.1 µM.

`O=C1CCC(=O)N1Cc1cc2nccc(-c3cc(Cl)cc4c3N([C@H]3CNC(CO)(CO)C3)CCC4)c2s1` (single isomer, unassigned) [Example 181b] showed an IC50 of 0.01 to 0.1 µM.

In the case of `O=C1CCC(=O)N1Cc1cc2ncnc(-c3cc(Cl)cc4c3N(C3CNC5(CCC5)C3)CCC4)c2s1` (single isomer, unassigned) [Example 161a], the concentration for half-maximal inhibition (IC50) is under 0.01 µM.

On to `CC1(C)OC(=O)N(Cc2cc3nccc(-c4cc(Cl)cc5c4N([C@@H]4CNC6(CCC6)C4)CCC5)c3s2)C1=O` [Example 152, (S)-3-((7-(6-chloro-1-(5-azaspiro[3.4]octan-7-yl)-1,2,3,4-tetrahydroquinolin-8-yl)thieno[3,2-b]pyridin-2-yl)methyl)-5,5-dimethyloxazolidine-2,4-dione], for which the IC50 fell in the range of 0.01 to 0.1 µM.

With `O=c1cccnn1Cc1cc2nccc(-c3cc(Cl)cc4c3N(C3CNC3)CCC4)c2s1` [Example 16, 2-[[7-[1-(azetidin-3-yl)-6-chloro-3,4-dihydro-2H-quinolin-8-yl]thieno[3,2-b]pyridin-2-yl]methyl]pyridazin-3-one], the IC50 was in the range of 0.01 to 0.1 µM.

For the compound `COC(=O)[C@@]1(C)C[C@@H](N2CCCc3cc(Cl)cc(-c4ccnc5cc(CN6C(=O)CCC6=O)sc45)c32)CN1` (single isomer, unassigned) [Example 201], the IC50 is 0.101 to 1 µM.

As to `O=C1CN(C2CC(F)(F)C2)C(=O)N1Cc1cc2nccc(-c3cc(Cl)cc4c3N([C@@H]3CNC5(CCC5)C3)CCC4)c2s1` [Example 159, (S)-3-((7-(6-chloro-1-(5-azaspiro[3.4]octan-7-yl)-1,2,3,4-tetrahydroquinolin-8-yl)thieno[3,2-b]pyridin-2-yl)methyl)-1-(3,3-difluorocyclobutyl)imidazolidine-2,4-dione], the IC50 was under 0.01 µM.

`COCCn1ccc(=O)n(Cc2cc3nccc(-c4cc(Cl)cc5c4N([C@@H]4CCNC4)CCC5)c3s2)c1=O` [Example 100, (R)-3-((7-(6-chloro-1-(pyrrolidin-3-yl)-1,2,3,4-tetrahydroquinolin-8-yl)thieno[3,2-b]pyridin-2-yl)methyl)-1-(2-methoxyethyl)pyrimidine-2,4(1H,3H)-dione] displayed an IC50 of under 0.01 µM.

Take `CC(C)(C)c1cnn(Cc2cc3nccc(-c4cc(C#N)cc5c4N([C@@H]4CN[C@@H](CO)C4)CCO5)c3s2)c(=O)c1` [Example 217, 5-(2-((4-(tert-butyl)-6-oxopyridazin-1(6H)-yl)methyl)thieno[3,2-b]pyridin-7-yl)-4-((3S,5R)-5-(hydroxymethyl)pyrrolidin-3-yl)-3,4-dihydro-2H-benzo[b][1,4]oxazine-7-carbonitrile]: the IC50 was under 0.01 µM.

The compound `N#Cc1cc(-c2ccnc3cc(Cn4c(=O)ccn(CC(F)F)c4=O)sc23)c2c(c1)[C@@H]1C[C@@H]1CN2[C@H]1CCNC1` [Example 117d, (1aS,7bR)-4-[2-[[3-(2,2-difluoroethyl)-2,6-dioxo-pyrimidin-1-yl]methyl]thieno[3,2-b]pyridin-7-yl]-3-[(3S)-pyrrolidin-3-yl]-1,1a,2,7b-tetrahydrocyclopropa[c]quinoline-6-carbonitrile] showed an IC50 of under 0.01 µM.

Compound `O=C1CCC(=O)N1Cc1cc2nccc(-c3cc(Cl)cc4c3C3(CCC4)CNCCO3)c2s1` (single isomer, unassigned) [Example 229b] gave a 50% inhibitory concentration (IC50) of over 1 µM.

The compound `CC1(C)C[C@H](N2CCCc3cc(C#N)cc(-c4ccnc5cc(CN6C(=O)C7CC7C6=O)sc45)c32)CN1` (stereo partly drawn) [Example 124, 1-((S)-5,5-dimethylpyrrolidin-3-yl)-8-(2-((2,4-dioxo-3-azabicyclo[3.1.0]hexan-3-yl)methyl)thieno[3,2-b]pyridin-7-yl)-1,2,3,4-tetrahydroquinoline-6-carbonitrile] showed a half-inhibitory concentration (IC50) of under 0.01 µM.
